The source of these data is PMC7246848, “Comparative Cerebroprotective Potential of D- and L-Carnosine Following Ischemic Stroke in Mice” (International Journal of Molecular Sciences, 2020).

Broadly, the AUC is the area under the concentration-time curve, a measure of exposure. What is called Vss is a proportionality between amount in the body and measured concentration, not a real space. A word on the half-life: it is the time in which the quantity being followed falls by half. By clearance is commonly meant the volume of plasma or blood freed of the substance per unit of time. Usually Cmax stands for the highest concentration seen after dosing.

Read-outs that look alike come from different tables or passages of the source.

On the set-up of data set [1]: method as in PMID 19301317. The following applies: cited from earlier work.
In data set [2] the test system is primary mouse neurons. The data set is described as follows: Oxidative stress assay: ROS accumulation (DCF fluorescence) after B27 withdrawal. It is filed as cell-based. The following applies: 24 h B27 withdrawal. On the procedure: (§1) Primary cortical neurons were prepared from embryonic day 16 C57bl/6J mouse pups or embryonic day 18 Wistar rat pups. Briefly, cerebral cortices were physically and chemically dissociated with 0.25% trypsin-EDTA (Gibco, Waltham, MA, USA) in dissociation medium (HBSS) at 37 °C for 15 min followed by trituration. The dissociated cells were checked under a microscope for single cells and plated out on poly-L-lysine (Sigma-Aldrich) -coated, 24-well plates (187,500 cells/well) for the excitotoxicity assays, and 96-well plates (47,000 cells/well) for the oxidative stress assays. Neuronal cultures were maintained in B27 neurobasal medium with Glutamax and pen-strep (Gibco) in a 5% CO2 incubator at 37 °C, and cells were used at 11–14 days in vitro for experiments.
Cytosolic oxidative stress was determined using dichlorofluorescein (DCF) fluorescence. Primary neurons were loaded with 20 µM 2′, 7′-dichlorodihydrofluorescein diacetate (H2DCFDA; Invitrogen) for 45 min, washed and oxidative stress was induced by B27-withdrawal for 24 h, in the presence or absence of L- or D-carnosine. The fluorescence of oxidized DCF was read after 24 h at Ex485 nm/Em530 nm using the Pherastar FS platereader.

In data set [3] the test system is primary mouse neurons. The data set is described as follows: NMDA excitotoxicity assay, cell viability by MTT. The data set is classed as cell-based. As to conditions: 24 h pretreatment, 24 h after NMDA. On the procedure: Primary cortical neurons were prepared from embryonic day 16 C57bl/6J mouse pups or embryonic day 18 Wistar rat pups. Briefly, cerebral cortices were physically and chemically dissociated with 0.25% trypsin-EDTA (Gibco, Waltham, MA, USA) in dissociation medium (HBSS) at 37 °C for 15 min followed by trituration. The dissociated cells were checked under a microscope for single cells and plated out on poly-L-lysine (Sigma-Aldrich) -coated, 24-well plates (187,500 cells/well) for the excitotoxicity assays, and 96-well plates (47,000 cells/well) for the oxidative stress assays. […]
Neurons were pretreated with L- or D-carnosine for 24 h prior to NMDA stimulation (30 µM) for 30 min. […] Cytotoxicity was measured after 24 h using the Pierce cytotoxicity lactate dehydrogenase (LDH) assay kit. Cell viability was measured by 3-[4–Dimethylthiazol-2-yl]-2,5-diphenyltetrazolium bromide (MTT) assay, which reflects cell metabolism. After NMDA removal, the cells were evaluated for cell viability after 24 h with the addition of fresh media containing each drug. […] Insoluble formazan was dissolved by the addition of 100 μL of DMSO and the absorbance (570 nm) was measured using a multimode plate reader (EnSpire, PerkinElmer, Waltham, MA, USA).

For a further data set, the system named is rat cortical neurons. As to the kind of experiment: NMDA excitotoxicity assay, LDH release. It is filed as cell-based. As to conditions: NMDA 30 µM. How it is done: as §1
(§2) Neurons were pretreated with L- or D-carnosine for 24 h prior to NMDA stimulation (30 µM) for 30 min. Post-NMDA stimulation, the cells were washed and incubated back in the original medium in the presence or absence of L- and D-carnosine. Wells were washed and the B27-neurobasal medium was replaced in the presence or absence of L- or D-carnosine. Cytotoxicity was measured after 24 h using the Pierce cytotoxicity lactate dehydrogenase (LDH) assay kit. Cell viability was measured by 3-[4–Dimethylthiazol-2-yl]-2,5-diphenyltetrazolium bromide (MTT) assay, which reflects cell metabolism. After NMDA removal, the cells were evaluated for cell viability after 24 h with the addition of fresh media containing each drug. MTT (Sigma Aldrich; final 5 mg/mL) was added to each well and the cells were incubated for 2 h at 37 °C in the dark. Insoluble formazan was dissolved by the addition of 100 μL of DMSO and the absorbance (570 nm) was measured using a multimode plate reader (EnSpire, PerkinElmer, Waltham, MA, USA).
On the technique in general: Release of lactate dehydrogenase indicates damage to the cell membrane.

A further data set concerns mouse cortical neurons. The data set is described as follows: NMDA excitotoxicity assay, LDH release. The following applies: NMDA 30 µM. It is filed as cell-based. On the procedure:
as §1, §2

The format of data set [4] is in vivo. As to conditions: mice, doses up to 1000 mg/kg.
Data set [5] concerns transient focal cerebral ischemia (MCAO). As to the kind of experiment: Transient focal cerebral ischemia (60 min t-MCAO), infarct volume by TTC staining. The data set is classed as in vivo, mice. The following applies: for infarct volume reduction in comparison to saline: 48 h post-t-MCAO; for infarct volume reduction: 1000 mg/kg intravenously 2 h post-t-MCAO, 48 h post-MCAO. How it is done:
Mice were anesthetized by inhalation of 5% isoflurane (in 100% Oxygen) and maintained at 1.5% isoflurane throughout the surgical procedure. Body temperature was monitored throughout surgery using a rectal probe and maintained at 37 + 0.5 °C using a heating pad (World Precision Instruments, Hitchin, Hertfordshire, UK). Laser Doppler flowmetry (Moor Instruments, Sussex, UK) was used to monitor cerebral blood flow. Focal cerebral ischemia was induced by middle cerebral artery occlusion (MCAO) by insertion of an intraluminal monofilament. […] A midline incision was made on the ventral side of the neck and the left common carotid artery (CCA) was isolated and ligated. Another ligature was tied on the left external carotid artery (ECA) and a loose knot was tied onto the internal carotid artery (ICA) as well as CCA just below the bifurcation. A very fine incision was made on the lower end of CCA and the monofilament (Doccol Corporation, Sharon, MA, USA) was advanced approximately 9 mm distal to the bifurcation into the ICA until it reached the distal end of middle cerebral artery (MCA). Relative cerebral blood flow was monitored for initial 10 min postfilament insertion to confirm at least 70% reduction of […] values. The animals were kept under anesthesia for the ischemic period of 60 min, after which the filament was withdrawn and reperfusion (confirmed using LD) was allowed to take place. The knots were untied and the animals were allowed to recover at 37 °C for 1 h before they were transferred to their normal cages. In the first set of experiments, 60 min transient MCAO (t-MCAO) was induced in mice weighing 20-25 g. At the onset of reperfusion, saline or different doses of drugs (L- and D-carnosine; 100, 500 or 1000 mg/kg) were delivered intraperitoneally (IP). Postrecovery, the animals were allowed to recover, placed back in their normal environment for 48 h and then euthanized. (IP administration was used as it was technically difficult to do IV injections at reperfusion). In a second set of experiments, drugs and saline were administered intravenously 2 h post-t-MCAO at 1000 mg/kg. Forty-eight hours post-t-MCAO, mice were deeply anaesthetized with 5% isoflurane, brains were removed and coronal slices with a thickness of 1 mm were prepared. Brain slices were immersed in 2% TTC (Sigma Aldrich) solution and incubated at 37 °C for 20 min. The area of infarction was traced and measured using image J analysis software. The infarct area was also corrected for edema: (1-(total ipsilateral hemisphere-infarct region)/total contralateral hemisphere) × 100. Total infarct volume was calculated as the sum of all infarct areas multiplied by each section thickness.

Data set [6] is described as follows: Serum pharmacokinetics after single intravenous injection (LC-MS/MS). It is filed as in vivo. As to conditions: mice, 1000 mg/kg IV; for serum levels (molar): converted from μg/mL; for half-life: naive pooled noncompartmental analysis. How it is done: Mice were randomly divided into the treatment groups (n = 4~5 mice/group for each time point) and given a single intravenous injection of saline or L-carnosine (1000 mg/kg) or D-carnosine (1000 mg/kg) through the tail vein. Anesthesia was induced by isoflurane inhalation and maintained during intravenous injection. Blood samples were collected by cardiac puncture at 0, 5, 15, 30, 60, 180 and 360 min postadministration of carnosine. Blood was incubated at room temperature for 30 min to allow clotting to occur, followed by centrifugation at 12,000 g to isolate serum. Remaining blood was removed from the body through perfusion with phosphate-buffered saline, and the brain was carefully isolated. Aliquots of brain tissue (300 mg) and serum (150 μL) were stored at −70 °C and used for analysis.
Carnosine levels in serum or brain were determined using liquid chromatography tandem-mass spectrometry (LC-MS/MS) as previously described with a slight modification. H-Tyr-His-OH (Bachem AG, Köln, Germany) was used as internal standard (IS). The entire procedure for sample and standard preparation was carried out on ice. Serum (150 μL) or homogenized brain tissue (300 mg) were deproteinized using an ultrasonicator (VCX 500, Sonics & Materials Inc., Newtown, CT, USA) with 1 mL of 1 M TCA and 50 μL of 3 M TCA, respectively. After spiking the IS (10 μg for brain and 200 ng for serum), each homogenate was centrifuged at 9000 g for 15 min at 4 °C. The supernatant was used for the assay of carnosine concentrations. Calibration curves were obtained by spiking known concentrations of L- or D-carnosine (Sigma-Aldrich, St. Louis, MO, USA) into homogenates of brain or serum obtained from untreated mice, and samples were processed as described above.
Chromatographic separation and quantitation were performed using an LC-MS/MS system composed of HPLC (Ultimate 3000, Dionex, Rome, Italy) coupled with electrospray ionization (ESI) and triple quadrupole-ion trap mass spectrometry (3200 Qtrap, AB Sciex, Ontario, Canada). Synergi C18-L (Phenomenex 150 × 4.6 mm, 4 μm particle size) column was used with a 0.8 mL/min flow rate of mobile phase. Isocratic elution of 75/25 (5 mM heptafluorobutyric acid/acetonitrile) was used for brain samples and gradient elution (95/5 to 80/20 for 6 min and holding for 4 min) was used for serum samples. The injection volume was 5 μL. For ESI source, ion spray voltage was 4.5 kV and capillary temperature was set at 650 °C which provided optimum ionization of each analyte. A multiple reaction monitoring (MRM) in positive mode was used to detect carnosine (m/z 227 > 110 as quant ion, 156 and 83 as qualifier), histidine (m/z 156 > 110 as quant ion, 83 and 82 as qualifier) and IS (m/z 319 > 110 as quant ion, 156 and 91 as qualifier). Pharmacokinetic parameters were calculated by noncompartmental analysis using a sparse sampling and naïve pooled approach (WinNonLin (Phoenix 64 Build 8.0.0.3176), Certara, Mountain View, CA, USA).

Details of data set [7]: method as in PMID 19301317. As to conditions: cited from earlier work. This is another data set of the same source.
Details of data set [8]: method as in PMID 23850642. The following applies: rats, 15 min after intravenous injection of 2000 mg/kg; cited from earlier work.
Where [9] appears, read: 100 mg/kg IP at onset of reperfusion.
[10] abbreviates: 500 mg/kg IP at onset of reperfusion.
Where [11] appears, read: 1000 mg/kg IP at onset of reperfusion.

Consider `NCCC(=O)N[C@H](Cc1cnc[nH]1)C(=O)O` [D-carnosine], for which, in [1], the “ability to cross the blood brain barrier” value is reported as “able to cross the blood brain barrier”. The “attenuation of ROS accumulation” value in the data set with primary mouse neurons [2] (200 µM) is recorded as 14.5%. The “protection against decrease of cell viability by NMDA (MTT)” value in the data set on primary mouse neurons [3] is “significant protection”. In addition, the “reduction of cell death (LDH assay)” value worked out at 21.9% with rat cortical neurons (10 µM); 26.4% in the data set with rat cortical neurons (100 µM); 22.8% in the data set on rat cortical neurons (200 µM); 13.1% in the data set on mouse cortical neurons (10 µM); 13.3% with mouse cortical neurons (100 µM); 15% with mouse cortical neurons (200 µM). Besides, in data set [4], the safety and tolerability entry was “safe and well tolerated”. The “infarct volume reduction in comparison to saline” value in [5] (setting [9]) is 23.6%; in data set [5] (setting [10]), 27.8%; in data set [5] (setting [11]), 57.2%. Moreover, in [5], the infarct volume reduction came to 52.1%. For the same compound, the “serum levels (molar)” value in [6] (5 min after injection) came out at 25700 µM. Further, the AUC in data set [6] (serum) stood at 108112 µg·min/mL. The CL in data set [6] (serum) stood at 9.23 mL/min/kg. Also, in data set [6] (serum), the distribution volume (Vss) turned out to be 0.12 L/kg. In data set [6] (serum, 5 min after injection), the “Cmax (5 min)” value was found to be 5818 µg/mL. In addition, in data set [6] (serum), the half-life was determined as 1.25 h. In addition, in [7], the “stability in human plasma” value is “stable in human plasma”.

As to `NCCC(=O)N[C@@H](Cc1cnc[nH]1)C(=O)O` [L-carnosine, β-alanyl-L-histidine], the “attenuation of ROS accumulation” value with primary mouse neurons [2] (100 µM) came to 18.6%; with primary mouse neurons [2] (200 µM) it was 19.3%. The “protection against decrease of cell viability by NMDA (MTT)” value with primary mouse neurons [3] was “significant protection”. The “reduction of cell death (LDH assay)” value in the data set on rat cortical neurons (200 µM) was 18.5%; in the data set with mouse cortical neurons (10 µM), “did not show neuroprotection”; in the data set on mouse cortical neurons (100 µM) it was “did not show neuroprotection”; in the data set on mouse cortical neurons (200 µM), 12.2%. In addition, in [8], the “serum levels of carnosine” value is reported as 15~20 mmol/L. In addition, the safety and tolerability result in data set [4] is “safe and well tolerated”. For the same compound, the “infarct volume reduction in comparison to saline” value in data set [5] (setting [9]) was 33.4%; in data set [5] (setting [10]), 30.94%; in [5] (setting [11]), 47.4%. In addition, the infarct volume reduction in data set [5] is listed as 53.8%. Moreover, in [6] (5 min after injection), the “serum levels (molar)” value was 17700 µM. Further, in [6] (mouse, serum), the clearance turned out to be 11.1 mL/min/kg. Further, the Cmax in data set [6] (mouse, serum, 5 min after injection) worked out at 4010 µg/mL. The half-life in data set [6] (mouse, serum, read-out: Half-Life) is 1.3 h. Further, in data set [6] (mouse, serum, read-out: AUC (converted)), the AUC was 89800 µg·min/mL. For the same compound, the Vd in data set [6] (mouse, serum, read-out: Vss) is 0.223 L/kg.
